Measurements published in paper PMC11125126, “Synthesis, Characterisation, and In Vitro Evaluation of Biocompatibility, Antibacterial and Antitumor Activity of Imidazolium Ionic Liquids” (Pharmaceutics, 2024).
Read-outs that look alike come from different tables or passages of the source.

Experiments:
Pseudomonas fluorescens = assay: MIC/MBC by broth dilution, pure ILs; type: cell-based; details: 24 h
Source text: (§1) Within the Di3A (Dipartimento di Agricoltura, Alimentazione e Ambiente, University of Catania, Italy) microbial collection, two Gram-negative strains (Escherichia coli and Pseudomonas fluorescens) and one Gram-positive strain (Listeria monocytogenes) were studied in order to define the potential efficacy of ionic liquids in relation to the different structure of the bacterial cell wall.
(§2) For the pure ILs, the minimal inhibitory concentration (MIC) and minimal bactericidal concentration (MBC) were determined in Nutrient Broth (NB, Oxoid, Basingstoke, UK) medium by broth dilution method, according to the Clinical and Laboratory Standards Institute (CLSI).
All the bacterial strains were individually grown for 24 h at 35 or 27 °C for P. fluorescens, with shaking. After the incubation period, the cells were collected by centrifugation and re-suspended in sterile NB to obtain a stock culture of 10^9 CFU/mL. […]
(§3) Tubes were incubated at 35 or 27 °C in an orbital shaker and evaluated for the viable count of E. coli, P. fluorescens, and L. monocytogenes after 24 h by spread-plating 100 µL of each suspension on Nutrient Agar (NA, Oxoid, Basingstoke, UK) incubated for 24–48 h at 35 or 27 °C.
(§4) In this study, MIC and MBC are expressed in both µg/mL and µM to make the comparison with the literature data easy. Each experiment was performed in triplicate.

HDF cells = assay: Direct cytotoxicity test of IL powders, Alamar blue assay; type: cell-based, human; details: 24 h of incubation
Method: (§5) Cytotoxicity studies on IL powders were carried out using human dermal fibroblast (HDF) cells (Sigma-Aldrich) and a human breast cancer cell line (MCF7). In addition, ILs loaded in PVC polymer substrates were tested for their cytocompatibility and adhesion properties on the HDF. HDF cells were cultured in 75 cm^2 cell culture flask in Dulbecco’s Modified Eagle’s Medium (DMEM) supplemented with 20% Foetal Bovine Serum (FBS), 1% non-essential amino acid (NEAA), antibiotic solution (streptomycin 100 µg/mL and penicillin 100 U/mL, Sigma Aldrich) and 2 mM L-glutamine. MCF7 cells were grown in DMEM with 10% FBS and the same antibiotics as mentioned above. The cells were maintained in a culture at 37 °C, with 5% CO2 and 95% humidity to achieve a confluent layer. Control cells were cultured in a complete medium without any compounds in tissue culture plates. Before biological testing, the samples were sterilised using a UV light for 2 h.
(§6) A direct cytotoxicity test was used to assess the in vitro cytotoxicity of IL powders. IL powders with different alkyl chains were dissolved in DMEM media to obtain solutions at various concentrations (0.5–1–5 and 10 µg/mL) to determine the best formulation.
(§7) After 24 h of incubation of IL solutions (200 µL) with seeded cells under specific environmental conditions (T = 37 °C, HR = 95%, CO2 = 5%), cell viability was tested using the Alamar blue assay (AbD Serotec, Milan, Italy) following the manufacturer’s instructions.
(§8) In summary, each well received a 200 µL aliquot of Alamar Blue^TM diluted 1:10 in phenol red-free medium and was incubated for 4 h at 37 °C, 5% CO2. Following this, 100 µL of the solution was transferred to a 96-well plate for colorimetric analysis. Wells with no cells were included to account for any background interference from the redox indicator. Optical density was immediately measured using a spectrophotometer (Victor X3, Perkin Elmer, Waltham, MA, USA) at 560 and 595 nm wavelengths. The results were presented as a percentage of cell viability compared to that of the control (cells grown on tissue culture plates).
(§9) Here, the antitumor activity and cytotoxicity of the synthetised imidazolium-based ionic liquids have been determined for breast cancer cells (MCF-7) and healthy human fibroblast (HDF) cells. […] Table 5 reports the IC50 values in µg/mL and µM to make their comparison with the literature data easy.

MCF7 cancer cells = assay: as above; type: cell-based, human; details: 24 h of incubation
Method: as §5, §6, §7, §8, §9

Listeria monocytogenes = assay: MIC/MBC by broth dilution, pure ILs; type: cell-based; details: 24 h
Source text: as §1, §2
(§10) All the bacterial strains were individually grown for 24 h at 35 or 27 °C for P. fluorescens, with shaking. After the incubation period, the cells were collected by centrifugation and re-suspended in sterile NB to obtain a stock culture of 10^9 CFU/mL.
(§11) Tubes containing 5 mL of NB with decreasing concentrations of ILs (1000, 500, 250, 125, 50, 25, 12.5, 5 and 0 µg/mL) were inoculated with each bacterial stock culture at a final concentration of 10^6 CFU/mL.
as §3, §4

Escherichia coli = assay: MIC/MBC by broth dilution, pure ILs; type: cell-based; details: 24 h
Source text: as §1, §2, §10, §11, §3, §4

[1] = NI = no inhibition at IL maximum concentration used (1000 µM), read-out: MIC
[2] = NI = no inhibition at IL maximum concentration used (1000 µM), read-out: MBC

Compound	MIC (Pseudomonas fluorescens; [1]) [µM]	IC50 (HDF cells; Homo sapiens, n = 3) [µM]	IC50 (HDF cells; Homo sapiens, n = 3, mean ± SD) [µg/mL]	IC50 (MCF7 cancer cells; Homo sapiens, n = 3) [µg/mL]	IC50 (MCF7 cancer cells; Homo sapiens, n = 3, mean ± SD) [µM]	MBC (Listeria monocytogenes; 10^6 CFU/mL, read-out: MBC) [µg/mL]	MIC (Listeria monocytogenes; 10^6 CFU/mL, read-out: MIC) [µg/mL]	MBC (Listeria monocytogenes; [2]) [µM]	MIC (Listeria monocytogenes; [1]) [µM]	MBC (Escherichia coli; 10^6 CFU/mL, read-out: MBC) [µg/mL]	MIC (Escherichia coli; 10^6 CFU/mL, read-out: MIC) [µg/mL]	MBC (Escherichia coli; [2]) [µM]	MIC (Escherichia coli; [1]) [µM]	MBC (Pseudomonas fluorescens; [2]) [µM]	IC50 (HDF cells; n = 3) [µM]	IC50 HDF (HDF cells; n = 3, mean ± SD) [µg/mL]	IC50 MCF7 (MCF7 cancer cells; n = 3) [µg/mL]	IC50 (MCF7 cancer cells; n = 3, mean ± SD) [µM]	MBC (Listeria monocytogenes; 10^6 CFU/mL) [µg/mL]	MIC (Listeria monocytogenes; 10^6 CFU/mL) [µg/mL]	other results
CCCCCCCCC[n+]1ccn(C)c1.F[B-](F)(F)F [C9mimBF4]	> 1000	17.4	5.14 ± 0.1	> 14.8	> 50	148	148	500	500	296	296	1000	1000	–	–	–	–	–	–	–	–
CCCCCCCCCC[n+]1ccn(C)c1.COC(=O)c1cc(C(=O)OC)cc(S(=O)(=O)[O-])c1 [C10mimDMSIP]	500	–	–	–	–	–	–	1000	250	–	–	500	250	1000	11.2	5.56 ± 0.04	5.42	10.9	496.62	124.16	MBC (Pseudomonas fluorescens; 10^6 CFU/mL): 496.62 µg/mL; MIC (Pseudomonas fluorescens; 10^6 CFU/mL): 248.31 µg/mL; MBC (Escherichia coli; 10^6 CFU/mL): 248.31 µg/mL; MIC (Escherichia coli; 10^6 CFU/mL): 124.16 µg/mL
CCCCCCCCCCCCn1cc[n+](C)c1.F[B-](F)(F)F [C12mimBF4, 1-dodecyl-3-methylimidazolium tetrafluoroborate]	50	12.8	4.34 ± 0.01	2.05	6.06	16.9	8.46	50	25	84.6	16.9	250	50	125	–	–	–	–	–	–	MBC (Pseudomonas fluorescens; 10^6 CFU/mL, read-out: MBC): 42.3 µg/mL; MIC (Pseudomonas fluorescens; 10^6 CFU/mL, read-out: MIC): 16.9 µg/mL
CCCCCCCCCCCCn1cc[n+](C)c1.COC(=O)c1cc(C(=O)OC)cc(S(=O)(=O)[O-])c1 [C12mimDMSIP, 1-dodecyl-3-methylimidazolium 1,3-dimethyl-5-sulfoisophthalate]	125	–	–	–	–	–	–	50	25	–	–	125	50	500	10.6	5.56 ± 0.04	4.95	9.44	26.24	13.12	MBC (Pseudomonas fluorescens; 10^6 CFU/mL): 262.33 µg/mL; MIC (Pseudomonas fluorescens; 10^6 CFU/mL): 65.58 µg/mL; MBC (Escherichia coli; 10^6 CFU/mL): 65.58 µg/mL; MIC (Escherichia coli; 10^6 CFU/mL): 26.24 µg/mL
CCCCCCCCCCCCCC[n+]1ccn(C)c1.F[B-](F)(F)F [C14mimBF4]	25	10.3	3.78 ± 0.17	4.41	12.1	4.58	4.58	12.5	12.5	9.16	4.58	25	12.5	125	–	–	–	–	–	–	MBC (Pseudomonas fluorescens; 10^6 CFU/mL, read-out: MBC): 45.8 µg/mL; MIC (Pseudomonas fluorescens; 10^6 CFU/mL, read-out: MIC): 9.16 µg/mL
CCCCCCCCCCCCCC[n+]1ccn(C)c1.COC(=O)c1cc(C(=O)OC)cc(S(=O)(=O)[O-])c1 [C14mimDMSIP]	50	–	–	–	–	–	–	125	50	–	–	50	25	125	10.1	5.56 ± 0.04	2.91	5.22	69.09	27.64	MBC (Pseudomonas fluorescens; 10^6 CFU/mL): 69.09 µg/mL; MIC (Pseudomonas fluorescens; 10^6 CFU/mL): 27.64 µg/mL; MBC (Escherichia coli; 10^6 CFU/mL): 27.64 µg/mL; MIC (Escherichia coli; 10^6 CFU/mL): 13.82 µg/mL
CCCCCCCCCCCCCCCC[n+]1ccn(C)c1.F[B-](F)(F)F [C16mimBF4]	125	20.9	8.26 ± 0.03	1.64	4.16	98.6	19.7	250	50	49.3	9.86	125	25	250	–	–	–	–	–	–	MBC (Pseudomonas fluorescens; 10^6 CFU/mL, read-out: MBC): 98.6 µg/mL; MIC (Pseudomonas fluorescens; 10^6 CFU/mL, read-out: MIC): 49.3 µg/mL
CCCCCCCCCCCCCCCC[n+]1ccn(C)c1.COC(=O)c1cc(C(=O)OC)cc(S(=O)(=O)[O-])c1 [C16mimDMSIP]	250	–	–	–	–	–	–	125	50	–	–	125	125	250	9.57	5.56 ± 0.04	3.84	6.61	72.60	29.04	MBC (Pseudomonas fluorescens; 10^6 CFU/mL): 145.19 µg/mL; MIC (Pseudomonas fluorescens; 10^6 CFU/mL): 145.19 µg/mL; MBC (Escherichia coli; 10^6 CFU/mL): 72.60 µg/mL; MIC (Escherichia coli; 10^6 CFU/mL): 72.60 µg/mL
CCCCCCCCCCCCCCCCCC[n+]1ccn(C)c1.F[B-](F)(F)F [C18mimBF4]	> 1000	10.8	4.57 ± 0.06	1.95	4.61	422	211	1000	500	106	52.8	250	125	–	–	–	–	–	–	–	–
CCCCCCCCCCCCCCCCCC[n+]1ccn(C)c1.COC(=O)c1cc(C(=O)OC)cc(S(=O)(=O)[O-])c1 [C18mimDMSIP]	–	–	–	–	–	–	–	500	500	–	–	1000	1000	–	6.59	4.01 ± 0.14	1.96	3.22	304.4	304.4	MBC (Escherichia coli; 10^6 CFU/mL): 608.83 µg/mL; MIC (Escherichia coli; 10^6 CFU/mL): 608.83 µg/mL
COc1cccc2c1C(=O)c1c(O)c3c(c(O)c1C2=O)C[C@@](O)(C(=O)CO)C[C@@H]3O[C@H]1C[C@H](N)[C@H](O)[C@H](C)O1 [Doxorubicin, reference compound]	–	–	–	7.2	13.2	–	–	–	–	–	–	–	–	–	–	–	–	–	–	–	–
